Key:
CYP2C8 [1] = target: T1, CYP2C8 (Homo sapiens, UniProt P10632); assay: LC-MS/MS, amodiaquine N-de-ethylation (substrate cocktail); assay type: biochemical
T1 construct: native enzyme in ultrapooled human liver microsomes
T1 sequence (P10632 1-490): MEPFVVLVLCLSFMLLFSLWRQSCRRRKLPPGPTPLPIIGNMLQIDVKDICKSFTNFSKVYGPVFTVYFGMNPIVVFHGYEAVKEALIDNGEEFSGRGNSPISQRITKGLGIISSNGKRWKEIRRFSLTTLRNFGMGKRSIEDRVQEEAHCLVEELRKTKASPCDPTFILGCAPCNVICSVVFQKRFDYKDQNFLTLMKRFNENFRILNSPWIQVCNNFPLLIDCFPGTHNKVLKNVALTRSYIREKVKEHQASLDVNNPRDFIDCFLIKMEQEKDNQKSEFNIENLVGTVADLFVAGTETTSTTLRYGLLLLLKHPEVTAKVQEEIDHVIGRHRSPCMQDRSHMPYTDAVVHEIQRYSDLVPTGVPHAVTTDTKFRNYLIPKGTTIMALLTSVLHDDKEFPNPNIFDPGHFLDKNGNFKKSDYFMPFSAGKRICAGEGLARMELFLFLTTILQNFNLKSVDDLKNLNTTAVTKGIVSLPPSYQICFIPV
From the text: LC-MS/MS, amodiaquine N-de-ethylation (substrate cocktail) on CYP2C8

OATP1B1 [2] = target: T2, OATP1B1 (Homo sapiens, UniProt Q9Y6L6); assay: [3H]estrone-3-sulfate uptake in HEK293-OATP1B1 cells; assay type: cell-based
T2 construct: gene SLCO1B1; transiently overexpressed in HEK293 cells (Corning)
T2 sequence (Q9Y6L6 1-691): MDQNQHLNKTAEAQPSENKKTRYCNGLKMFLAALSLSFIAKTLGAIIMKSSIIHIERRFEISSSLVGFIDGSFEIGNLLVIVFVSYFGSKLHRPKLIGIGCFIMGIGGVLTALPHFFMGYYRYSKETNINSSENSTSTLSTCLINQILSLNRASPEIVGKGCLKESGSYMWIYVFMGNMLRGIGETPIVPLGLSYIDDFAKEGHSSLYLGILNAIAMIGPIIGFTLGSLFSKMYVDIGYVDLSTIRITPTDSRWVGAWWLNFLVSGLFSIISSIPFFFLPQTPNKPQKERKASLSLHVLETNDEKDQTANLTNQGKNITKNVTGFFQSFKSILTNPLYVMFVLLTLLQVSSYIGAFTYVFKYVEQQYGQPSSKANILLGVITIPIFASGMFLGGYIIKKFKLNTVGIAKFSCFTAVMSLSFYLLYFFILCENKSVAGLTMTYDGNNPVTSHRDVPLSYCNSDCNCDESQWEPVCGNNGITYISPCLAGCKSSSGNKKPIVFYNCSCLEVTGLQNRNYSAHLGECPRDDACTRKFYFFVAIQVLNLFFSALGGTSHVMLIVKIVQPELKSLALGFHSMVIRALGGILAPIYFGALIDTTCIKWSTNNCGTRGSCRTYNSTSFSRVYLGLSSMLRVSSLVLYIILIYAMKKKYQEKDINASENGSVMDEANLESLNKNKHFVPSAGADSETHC

CYP2D6 [3] = target: T3, CYP2D6 (Homo sapiens, UniProt P10635); assay: LC-MS/MS, bufuralol (substrate cocktail); assay type: biochemical
T3 construct: native enzyme in ultrapooled human liver microsomes
T3 sequence (P10635 whole entry): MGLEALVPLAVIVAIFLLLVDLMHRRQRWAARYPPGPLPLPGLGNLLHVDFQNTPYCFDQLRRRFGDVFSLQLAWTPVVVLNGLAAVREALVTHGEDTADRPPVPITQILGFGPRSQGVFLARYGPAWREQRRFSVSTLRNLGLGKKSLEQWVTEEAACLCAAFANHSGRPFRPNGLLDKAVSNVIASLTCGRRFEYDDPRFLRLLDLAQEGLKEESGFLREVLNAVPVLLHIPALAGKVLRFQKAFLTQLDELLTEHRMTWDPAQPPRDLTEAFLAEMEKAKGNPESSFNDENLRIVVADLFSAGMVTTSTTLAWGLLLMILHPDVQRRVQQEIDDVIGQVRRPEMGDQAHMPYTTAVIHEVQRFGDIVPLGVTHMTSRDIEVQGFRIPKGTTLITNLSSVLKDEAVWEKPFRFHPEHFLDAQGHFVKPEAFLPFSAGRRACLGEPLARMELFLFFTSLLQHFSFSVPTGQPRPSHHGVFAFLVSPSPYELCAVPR

OATP1B1 [4] = target: T2, OATP1B1; assay: [3H]estrone-3-sulfate uptake in HEK293-OATP1B1 cells, Lineweaver-Burk; assay type: cell-based
From the text: [3H]estrone-3-sulfate uptake in HEK293-OATP1B1 cells, Lineweaver-Burk on OATP1B1

CYP1A2 = target: T4, CYP1A2 (Homo sapiens, UniProt P05177); assay: LC-MS/MS, phenacetin O-de-ethylation (substrate cocktail); assay type: biochemical
T4 construct: native enzyme in ultrapooled human liver microsomes
T4 sequence (P05177 2-516): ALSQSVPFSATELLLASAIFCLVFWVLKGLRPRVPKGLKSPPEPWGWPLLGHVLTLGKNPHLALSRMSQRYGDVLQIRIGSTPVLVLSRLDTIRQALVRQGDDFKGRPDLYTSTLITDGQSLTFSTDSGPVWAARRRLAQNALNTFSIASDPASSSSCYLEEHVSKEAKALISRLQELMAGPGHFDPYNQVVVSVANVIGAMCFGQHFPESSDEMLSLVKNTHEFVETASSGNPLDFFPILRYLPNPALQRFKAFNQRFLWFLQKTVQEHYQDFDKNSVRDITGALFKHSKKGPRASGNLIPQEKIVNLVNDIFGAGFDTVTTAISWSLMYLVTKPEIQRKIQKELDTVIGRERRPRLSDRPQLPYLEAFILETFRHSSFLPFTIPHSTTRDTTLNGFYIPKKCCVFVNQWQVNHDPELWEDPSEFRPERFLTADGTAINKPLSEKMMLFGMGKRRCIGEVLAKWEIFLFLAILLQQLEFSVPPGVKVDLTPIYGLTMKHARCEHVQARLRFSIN
From the text: LC-MS/MS, phenacetin O-de-ethylation (substrate cocktail) on CYP1A2

CYP2C9 [5] = target: T5, CYP2C9 (Homo sapiens, UniProt P11712); assay: LC-MS/MS, diclofenac, Lineweaver-Burk/Dixon; assay type: biochemical
T5 construct: native enzyme in ultrapooled human liver microsomes
T5 sequence (P11712 whole entry): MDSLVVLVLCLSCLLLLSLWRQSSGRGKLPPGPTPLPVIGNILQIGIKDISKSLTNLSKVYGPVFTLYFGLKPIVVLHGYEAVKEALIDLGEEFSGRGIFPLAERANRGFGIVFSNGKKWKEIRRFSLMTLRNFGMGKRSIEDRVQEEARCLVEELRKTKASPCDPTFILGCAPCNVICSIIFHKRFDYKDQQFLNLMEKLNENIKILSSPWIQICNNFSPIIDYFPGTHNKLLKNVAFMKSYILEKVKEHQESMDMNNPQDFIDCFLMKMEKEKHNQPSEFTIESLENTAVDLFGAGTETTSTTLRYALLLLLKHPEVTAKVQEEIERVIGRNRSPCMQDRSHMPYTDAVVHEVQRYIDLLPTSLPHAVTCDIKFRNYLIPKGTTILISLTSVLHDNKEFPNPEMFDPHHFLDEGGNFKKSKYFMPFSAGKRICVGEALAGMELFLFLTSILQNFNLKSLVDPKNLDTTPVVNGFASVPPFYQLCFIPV

CYP2C19 [6] = target: T6, CYP2C19 (Homo sapiens, UniProt P33261); assay: LC-MS/MS, [S]-mephenytoin, Lineweaver-Burk/Dixon; assay type: biochemical
T6 construct: native enzyme in ultrapooled human liver microsomes
T6 sequence (P33261 whole entry): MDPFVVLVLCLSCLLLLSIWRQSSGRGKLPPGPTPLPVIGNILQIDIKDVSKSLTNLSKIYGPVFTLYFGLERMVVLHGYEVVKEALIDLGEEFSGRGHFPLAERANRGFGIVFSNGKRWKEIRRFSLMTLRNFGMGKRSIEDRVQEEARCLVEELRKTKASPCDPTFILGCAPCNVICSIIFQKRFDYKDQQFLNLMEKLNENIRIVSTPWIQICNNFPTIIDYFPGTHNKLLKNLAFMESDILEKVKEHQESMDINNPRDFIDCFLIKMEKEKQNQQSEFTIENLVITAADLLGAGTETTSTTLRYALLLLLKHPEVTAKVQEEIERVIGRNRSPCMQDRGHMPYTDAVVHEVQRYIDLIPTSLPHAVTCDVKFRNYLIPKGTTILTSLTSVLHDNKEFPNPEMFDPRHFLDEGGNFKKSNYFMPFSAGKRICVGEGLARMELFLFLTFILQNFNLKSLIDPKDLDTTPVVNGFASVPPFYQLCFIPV

CYP2C9 [7] = target: T5, CYP2C9; assay: LC-MS/MS, diclofenac (substrate cocktail); assay type: biochemical
CYP2C8 [8] = target: T1, CYP2C8; assay: LC-MS/MS, amodiaquine N-de-ethylation, Lineweaver-Burk/Dixon; assay type: biochemical
From the text: LC-MS/MS, amodiaquine N-de-ethylation, Lineweaver-Burk/Dixon on CYP2C8

CYP2B6 [9] = target: T7, CYP2B6 (Homo sapiens, UniProt P20813); assay: LC-MS/MS, bupropion hydroxylation; assay type: biochemical
T7 construct: native enzyme in ultrapooled human liver microsomes
T7 sequence (P20813 1-491): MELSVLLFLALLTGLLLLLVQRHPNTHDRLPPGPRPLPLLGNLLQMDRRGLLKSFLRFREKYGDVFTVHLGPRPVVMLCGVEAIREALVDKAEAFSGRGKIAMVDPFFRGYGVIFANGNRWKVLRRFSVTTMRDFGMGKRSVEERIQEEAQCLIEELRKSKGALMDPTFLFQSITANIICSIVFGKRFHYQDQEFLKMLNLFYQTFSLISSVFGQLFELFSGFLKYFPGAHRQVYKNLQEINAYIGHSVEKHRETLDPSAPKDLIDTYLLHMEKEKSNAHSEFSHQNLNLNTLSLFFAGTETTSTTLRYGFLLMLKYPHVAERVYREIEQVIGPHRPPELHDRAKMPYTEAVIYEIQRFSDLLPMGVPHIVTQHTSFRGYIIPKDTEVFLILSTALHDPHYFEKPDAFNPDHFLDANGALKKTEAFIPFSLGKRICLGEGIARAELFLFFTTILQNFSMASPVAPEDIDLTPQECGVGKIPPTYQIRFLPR
From the text: LC-MS/MS, bupropion hydroxylation on CYP2B6

CYP2B6 [10] = target: T7, CYP2B6; assay: LC-MS/MS, bupropion hydroxylation, Lineweaver-Burk/Dixon; assay type: biochemical
From the text: LC-MS/MS, bupropion hydroxylation, Lineweaver-Burk/Dixon on CYP2B6

CYP2C19 [11] = target: T6, CYP2C19; assay: LC-MS/MS, [S]-mephenytoin (substrate cocktail); assay type: biochemical
CYP2D6 [12] = target: T3, CYP2D6; assay: LC-MS/MS, bufuralol, Lineweaver-Burk/Dixon; assay type: biochemical

CC(C)[C@H](NC(=O)c1nn(Cc2ccc(F)cc2)c2ccccc12)C(N)=O [AB-FUBINACA, N-[(1S)-1-(aminocarbonyl)-2-methylpropyl]-1-[(4-fluorophenyl)methyl]-1H-indazole-3-carboxamide]
IC50 (CYP2C8 [1]): 44.3 µM | IC50 (OATP1B1 [2]): 85.6 µM | IC50 (CYP2D6 [3]): 40.4 µM | Ki (OATP1B1 [4]): 94.4 µM | IC50 (CYP1A2): > 100 µM | Ki (CYP2C9 [5]): 13.1 µM | Ki (CYP2C19 [6]): 6.3 µM | IC50 (CYP2C9 [7]): 13.5 µM | Ki (CYP2C8 [8]): 19.9 µM | IC50 (CYP2B6 [9]): 29.9 µM | Ki (CYP2B6 [10]): 15 µM | IC50 (CYP2C19 [11]): 19.7 µM | Ki (CYP2D6 [12]): 20.8 µM

Source: paper PMC7582776 (Molecules, 2020)
